From PubChem BioAssay AID330 (DTP/NCI, 2004)
Several values for one entry are separate records, joined by “and”; a condition that tells them apart may be missing. Equal entries are not always repeated. Toxic doses and inconclusive results are not listed. Rule for the calls: active = survival T/C of 150% or more; inactive = T/C below 125% in these data.

System: P388 leukemia ip, CD2F1 mice, survival T/C
Experiment: NCI In Vivo Anticancer Drug Screen. Data for tumor model P388 Leukemia (intraperitoneal) in CD2F1 (CDF1) mice
Settings: endpoint: median survival time, higher = longer survival
In short: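 Mice carrying the transplanted tumor received test compound or vehicle. Survival was recorded in each group, and the value is the treated-group measurement divided by that of the vehicle-treated control group.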

[1] = dose: 60.0 mg/kg/injection, schedule: Q01DX005 (ip), vehicle: saline with Tween-80
[2] = dose: 120.0 mg/kg/injection, schedule: Q01DX005 (ip), vehicle: saline with Tween-80
[3] = dose: 240.0 mg/kg/injection, schedule: Q01DX005 (ip), vehicle: saline with Tween-80
[4] = dose: 6.25 mg/kg/injection, schedule: Q01DX009 (ip), vehicle: saline with Tween-80
[5] = dose: 12.5 mg/kg/injection, schedule: Q01DX009 (ip), vehicle: saline with Tween-80
[6] = dose: 25.0 mg/kg/injection, schedule: Q01DX009 (ip), vehicle: saline with Tween-80
[7] = dose: 50.0 mg/kg/injection, schedule: Q01DX009 (ip), vehicle: Klucel (hydroxypropylcellulose) (HPC)
[8] = dose: 100.0 mg/kg/injection, schedule: Q01DX009 (ip), vehicle: Klucel (hydroxypropylcellulose) (HPC)
[9] = dose: 200.0 mg/kg/injection, schedule: Q01DX009 (ip), vehicle: Klucel (hydroxypropylcellulose) (HPC)
[10] = dose: 3.12 mg/kg/injection, schedule: Q01DX005 (ip), vehicle: Klucel (hydroxypropylcellulose) (HPC)
[11] = dose: 6.25 mg/kg/injection, schedule: Q01DX005 (ip), vehicle: Klucel (hydroxypropylcellulose) (HPC)
[12] = dose: 6.25 mg/kg/injection, schedule: Q01DX005 (ip), vehicle: saline with Tween-80
[13] = dose: 12.5 mg/kg/injection, schedule: Q01DX005 (ip), vehicle: saline with Tween-80
[14] = dose: 100.0 mg/kg/injection, schedule: Q04DX002 (ip), vehicle: saline with Tween-80
[15] = dose: 200.0 mg/kg/injection, schedule: Q04DX002 (ip), vehicle: saline with Tween-80
[16] = dose: 400.0 mg/kg/injection, schedule: Q04DX002 (ip), vehicle: saline with Tween-80
[17] = dose: 50.0 mg/kg/injection, schedule: Q01DX009 (ip), vehicle: saline with Tween-80
[18] = dose: 100.0 mg/kg/injection, schedule: Q01DX009 (ip), vehicle: saline with Tween-80
[19] = dose: 200.0 mg/kg/injection, schedule: Q01DX009 (ip), vehicle: saline with Tween-80

Measured: T/C

O=c1[nH]nc(-c2ccccc2)c2c1[nH]c1ccccc12
inactive: [1] 93 % of control | [2] 96 % of control | [3] 86 % of control

O=C(Nc1cccnc1)c1ccccc1
inactive: [4] 100 % of control | [5] 100 % of control | [6] 100 % of control

COc1ccc(C(=O)Nc2cccnc2)cc1
inactive: [7] 98 % of control | [8] 100 % of control | [9] 98 % of control

COc1ccc(OC)c(NC(=O)Nc2ncccn2)c1
inactive: [7] 106 % of control | [8] 100 % of control | [9] 103 % of control

[Cl][Sn]([CH2]C[CH2][Sn]([Cl])([c]1ccccc1)[c]1ccccc1)([c]1ccccc1)[c]1ccccc1
inactive: [10] 99 % of control | [11] 99 % of control | dose: 12.5 mg/kg/injection, schedule: Q01DX005 (ip), vehicle: Klucel (hydroxypropylcellulose) (HPC) 98 % of control

Clc1cc(Cl)c2c(c1)[nH]c1nc3ccccc3nc12
inactive: [12] 101 % of control | [13] 90 % of control | dose: 50.0 mg/kg/injection, schedule: Q01DX005 (ip), vehicle: saline with Tween-80 96 % of control | dose: 100.0 mg/kg/injection, schedule: Q01DX005 (ip), vehicle: saline with Tween-80 100 % of control | dose: 200.0 mg/kg/injection, schedule: Q01DX005 (ip), vehicle: saline with Tween-80 104 % of control

N=C(N)c1ccc(/C=C\C=C/c2cc3cc(C(=N)N)ccc3o2)cc1
inactive: dose: 1.56 mg/kg/injection, schedule: Q04DX003 (ip), vehicle: saline with Tween-80 107 % of control | dose: 3.12 mg/kg/injection, schedule: Q04DX003 (ip), vehicle: saline with Tween-80 122 % of control | dose: 3.12 mg/kg/injection, schedule: Q04DX003 (ip), vehicle: saline 115 % of control | dose: 12.5 mg/kg/injection, schedule: Q04DX003 (ip), vehicle: saline 124 % of control

COCCOC(=O)CCn1nc(-c2ccccc2)c(-c2ccccc2)c(C#N)c1=O
inactive: [14] 104 % of control | [15] 106 % of control | [16] 100 % of control

C=C1C(=O)C23CC1CCC2C12COC(OC(=O)CCCCCCCCCCCCC)C1C(C)(C)C(O)CC2OC3=O (centres undefined)
inactive: dose: 7.5 mg/kg/injection, schedule: Q01DX009 (ip), vehicle: saline with Tween-80 109 % of control | dose: 15.0 mg/kg/injection, schedule: Q01DX009 (ip), vehicle: saline with Tween-80 109 % of control | dose: 30.0 mg/kg/injection, schedule: Q01DX009 (ip), vehicle: saline with Tween-80 100 % of control | dose: 60.0 mg/kg/injection, schedule: Q01DX009 (ip), vehicle: saline with Tween-80 111 % of control

CC(C)N1C(=O)NC2C1NC(=O)N2C(C)C (centres undefined) (tested in a mixture with another compound)
inactive: [1] 106 % of control | [2] 105 % of control | [3] 105 % of control

O=C1CC2CCCCC2CC1c1ccccc1 (centres undefined)
inactive: [7] 104 % of control | [8] 88 % of control | [9] 95 % of control

ClCC1CSC2(CCCCC2)O1 (centres undefined)
inactive: [17] 104 % of control and 115 % of control | [18] 100 % of control and 119 % of control | [19] 97 % of control

CN1C2CCC1CC(OC(=O)/C=C/C(=O)OC1CC3CCC(C1)N3C)C2 (centres undefined)
inactive: dose: 60.0 mg/kg/injection, schedule: Q01DX005 (ip), vehicle: suspension in saline 91 % of control | dose: 120.0 mg/kg/injection, schedule: Q01DX005 (ip), vehicle: suspension in saline 91 % of control

CC(=O)N=C1CSc2ccccc2N1C
inactive: dose: 50.0 mg/kg/injection, schedule: Q01DX005 (ip), vehicle: saline + alcohol 99 % of control | dose: 100.0 mg/kg/injection, schedule: Q01DX005 (ip), vehicle: saline + alcohol 103 % of control | dose: 200.0 mg/kg/injection, schedule: Q01DX005 (ip), vehicle: saline + alcohol 109 % of control

CC(C)COC(=O)N1c2ccccc2C=CC1OCC(C)C (centres undefined)
inactive: dose: 1.56 mg/kg/injection, schedule: Q01DX005 (ip), vehicle: Klucel (hydroxypropylcellulose) (HPC) 104 % of control | [10] 100 % of control | [11] 104 % of control | [12] 109 % of control | [13] 112 % of control

CC(=O)c1c(-c2ccc(-c3c[nH]c(C)c3C(C)=O)cc2)c[nH]c1C
inactive: [14] 95 % of control | [15] 91 % of control | [16] 91 % of control

CCOC(=O)NCCCCl
inactive: dose: 50.0 mg/kg/injection, schedule: Q01DX009 (ip), vehicle: saline 99 % of control | dose: 100.0 mg/kg/injection, schedule: Q01DX009 (ip), vehicle: saline 101 % of control | dose: 200.0 mg/kg/injection, schedule: Q01DX009 (ip), vehicle: saline 107 % of control

NC(=S)N/N=C/Cn1ccc(=O)[nH]c1=O
inactive: dose: 50.0 mg/kg/injection, schedule: Q01DX005 (ip), vehicle: Klucel (hydroxypropylcellulose) (HPC) 100 % of control | dose: 100.0 mg/kg/injection, schedule: Q01DX005 (ip), vehicle: Klucel (hydroxypropylcellulose) (HPC) 98 % of control | dose: 200.0 mg/kg/injection, schedule: Q01DX005 (ip), vehicle: Klucel (hydroxypropylcellulose) (HPC) 99 % of control

COc1cc(/C=C(/C)[N+](=O)[O-])cc(Br)c1OC
inactive: dose: 25.0 mg/kg/injection, schedule: Q04DX003 (ip), vehicle: saline with Tween-80 108 % of control | dose: 50.0 mg/kg/injection, schedule: Q04DX003 (ip), vehicle: saline with Tween-80 109 % of control | dose: 100.0 mg/kg/injection, schedule: Q04DX003 (ip), vehicle: saline with Tween-80 109 % of control

c1ccc2[nH]c(-c3nc4ccccc4s3)cc2c1
inactive: [7] 106 % of control | [8] 108 % of control | [9] 98 % of control

COc1cc2c(c(OC)c1OC)-c1c(cc3c(c1OC)OCO3)CC(C)C(C)(O)C2OC(=O)c1ccccc1 (centres undefined)
inactive: dose: 11.25 mg/kg/injection, schedule: Q01DX009 (ip), vehicle: saline + alcohol 104 % of control | dose: 22.5 mg/kg/injection, schedule: Q01DX009 (ip), vehicle: saline + alcohol 104 % of control | dose: 45.0 mg/kg/injection, schedule: Q01DX009 (ip), vehicle: saline + alcohol 95 % of control | dose: 90.0 mg/kg/injection, schedule: Q01DX009 (ip), vehicle: saline + alcohol 97 % of control

Cc1cc(N)c2cc(NC(=O)CCCCCC(=O)Nc3ccc4nc(C)cc(N)c4c3)ccc2n1
inactive: [4] 100 % of control | [5] 110 % of control | [6] 118 % of control

CS/C(N)=N\NCCC(=O)Nc1c(C)cccc1C
inactive: [14] 100 % of control | [15] 91 % of control | [16] 91 % of control

CN(C)CCC=C1c2ccccc2CCc2ccccc21
inactive: dose: 12.5 mg/kg/injection, schedule: Q01DX005 (ip), vehicle: saline 101 % of control | dose: 25.0 mg/kg/injection, schedule: Q01DX005 (ip), vehicle: saline 103 % of control | dose: 50.0 mg/kg/injection, schedule: Q01DX005 (ip), vehicle: saline 109 % of control and 116 % of control

Cc1cc(O)c(NCCN(C)C)c2c(=O)c3ccccc3sc12
inactive: [17] 100 % of control | [18] 101 % of control | [19] 100 % of control

CC(=O)ON(C(=O)c1ccccc1)c1ccccc1
inactive: [1] 104 % of control | [2] 102 % of control | [3] 99 % of control

CN(Cc1ccccc1)CC(CCC1OCCO1)(CCC1OCCO1)c1ccccc1
inactive: [7] 96 % of control | [8] 91 % of control

CC1CCCC/C1=N/SC(c1ccccc1)(c1ccccc1)c1ccccc1 (centres undefined)
inactive: dose: 100.0 mg/kg/injection, schedule: Q01DX001 (ip), vehicle: saline with Tween-80 91 % of control | dose: 200.0 mg/kg/injection, schedule: Q01DX001 (ip), vehicle: saline with Tween-80 89 % of control | dose: 400.0 mg/kg/injection, schedule: Q01DX001 (ip), vehicle: saline with Tween-80 87 % of control
